# Experiments:
# [1] = human, in vivo
# [2] = system: ABSSSI known or suspected to be due to Gram-positive pathogens; experiment: Phase 3 oral omadacycline vs oral linezolid in ABSSSI: Investigator's Assessment of Clinical Response at PTE; type: in vivo, human; conditions: for Overall Clinical Success at PTE, %: micro-mITT, % of N1; for Difference (95% CI) in Overall Clinical Success rate at PTE: omadacycline minus linezolid
# [3] = Cellulitis/erysipelas, actual type, mITT
# [4] = Cellulitis/erysipelas, as randomized, mITT
# [5] = Major Abscess, actual type, mITT
# [6] = Major Abscess, as randomized, mITT
# [7] = Wound Infection, actual type, mITT
# [8] = Wound Infection, as randomized, mITT
smiles,measurement,setting,value
"CN(C)c1cc(CNCC(C)(C)C)c(O)c2c1C[C@H]1C[C@H]3[C@H](N(C)C)C(O)=C(C(N)=O)C(=O)[C@@]3(O)C(O)=C1C2=O [Omadacycline, 9-[(2,2-dimethyl-propylamino)-methyl]-minocycline]","discontinuation due to TEAE, % of subjects",[1],1.9%
same,"serious TEAEs, % of subjects",[1],3.4%
same,"treatment-emergent adverse events (TEAEs), % of subjects",[1],48.3%
same,"Difference in Overall Clinical Success rate at PTE, omadacycline minus linezolid",[2]; CE-PTE,2.3%
same,Overall clinical response at PTE: Clinical Success,"[2]; Cellulitis/erysipelas, actual type of infection, investigator assessment, mITT",76 (88.4) n (%)
same,Overall clinical response at PTE: Clinical Failure,[2]; [3],2 (2.3) n (%)
same,Overall clinical response at PTE: Clinical Failure or Indeterminate,[2]; [3],10 (11.6) n (%)
same,Overall clinical response at PTE: Indeterminate,[2]; [3],8 (9.3) n (%)
same,Overall clinical response at PTE: Clinical Failure,[2]; [4],2 (2.4) n (%)
same,Overall clinical response at PTE: Clinical Failure or Indeterminate,[2]; [4],10 (12.2) n (%)
same,Overall clinical response at PTE: Indeterminate,[2]; [4],8 (9.8) n (%)
same,Overall clinical response at PTE: Clinical Success,"[2]; Cellulitis/erysipelas, type of infection as randomized, investigator assessment, mITT",72 (87.8) n (%)
same,Overall clinical response at PTE: Clinical Success,"[2]; Major Abscess, actual type of infection, investigator assessment, mITT",54 (84.4) n (%)
same,Overall clinical response at PTE: Clinical Failure,[2]; [5],2 (3.1) n (%)
same,Overall clinical response at PTE: Clinical Failure or Indeterminate,[2]; [5],10 (15.6) n (%)
same,Overall clinical response at PTE: Indeterminate,[2]; [5],8 (12.5) n (%)
same,Overall clinical response at PTE: Clinical Failure,[2]; [6],2 (3.1) n (%)
same,Overall clinical response at PTE: Clinical Failure or Indeterminate,[2]; [6],10 (15.6) n (%)
same,Overall clinical response at PTE: Indeterminate,[2]; [6],8 (12.5) n (%)
same,Overall clinical response at PTE: Clinical Success,"[2]; Major Abscess, type of infection as randomized, investigator assessment, mITT",54 (84.4) n (%)
same,Overall clinical response at PTE: Clinical Success,"[2]; Wound Infection, actual type of infection, investigator assessment, mITT",173 (82.4) n (%)
same,Overall clinical response at PTE: Clinical Failure,[2]; [7],8 (3.8) n (%)
same,Overall clinical response at PTE: Clinical Failure or Indeterminate,[2]; [7],37 (17.6) n (%)
same,Overall clinical response at PTE: Indeterminate,[2]; [7],29 (13.8) n (%)
same,Overall clinical response at PTE: Clinical Failure,[2]; [8],8 (3.7) n (%)
same,Overall clinical response at PTE: Clinical Failure or Indeterminate,[2]; [8],37 (17.3) n (%)
same,Overall clinical response at PTE: Indeterminate,[2]; [8],29 (13.6) n (%)
same,Overall clinical response at PTE: Clinical Success,"[2]; Wound Infection, type of infection as randomized, investigator assessment, mITT",177 (82.7) n (%)
same,"Overall Clinical Success at PTE, %","[2]; baseline pathogen Clostridium perfringens, investigator assessment",(80.0) %
same,"Overall Clinical Success at PTE, %","[2]; baseline pathogen Enterobacter cloacae, investigator assessment",(80.0) %
same,"Overall Clinical Success at PTE, %","[2]; baseline pathogen Enterococcus faecalis VSE, investigator assessment",(100.0) %
same,"Overall Clinical Success at PTE, %","[2]; baseline pathogen Enterococcus faecalis, investigator assessment",(100.0) %
same,"Overall Clinical Success at PTE, %","[2]; baseline pathogen Enterococcus faecium VSE, investigator assessment",(100.0) %
same,"Overall Clinical Success at PTE, %","[2]; baseline pathogen Enterococcus faecium, investigator assessment",(100.0) %
same,"Overall Clinical Success at PTE, %","[2]; baseline pathogen Escherichia coli, investigator assessment",(100.0) %
same,"Overall Clinical Success at PTE, %","[2]; baseline pathogen Finegoldia magna, investigator assessment",(100.0) %
same,"Overall Clinical Success at PTE, %","[2]; baseline pathogen Klebsiella pneumoniae, investigator assessment",(80.0) %
same,"Overall Clinical Success at PTE, %","[2]; baseline pathogen MRSA, investigator assessment",(85.6) %
same,"Overall Clinical Success at PTE, %","[2]; baseline pathogen MSSA, investigator assessment",(80.8) %
same,"Overall Clinical Success at PTE, %","[2]; baseline pathogen Prevotella denticola, investigator assessment",(60.0) %
same,"Overall Clinical Success at PTE, %","[2]; baseline pathogen Prevotella melaninogenica, investigator assessment",(100.0) %
same,"Overall Clinical Success at PTE, %","[2]; baseline pathogen Staphylococcus aureus, investigator assessment",(82.7) %
same,"Overall Clinical Success at PTE, %","[2]; baseline pathogen Staphylococcus lugdunensis, investigator assessment",(80.0) %
same,"Overall Clinical Success at PTE, %","[2]; baseline pathogen Streptococcus agalactiae, investigator assessment",(50.0) %
same,"Overall Clinical Success at PTE, %","[2]; baseline pathogen Streptococcus anginosus group, investigator assessment",(86.0) %
same,"Overall Clinical Success at PTE, %","[2]; baseline pathogen Streptococcus anginosus, investigator assessment",(88.9) %
same,"Overall Clinical Success at PTE, %","[2]; baseline pathogen Streptococcus constellatus, investigator assessment",(88.9) %
same,"Overall Clinical Success at PTE, %","[2]; baseline pathogen Streptococcus intermedius, investigator assessment",(78.3) %
same,"Overall Clinical Success at PTE, %","[2]; baseline pathogen Streptococcus mitis, investigator assessment",(100.0) %
same,"Overall Clinical Success at PTE, %","[2]; baseline pathogen Streptococcus pyogenes, investigator assessment",(69.0) %
same,"Overall Clinical Success at PTE, %","[2]; baseline pathogen Streptococcus viridans group, investigator assessment",(100.0) %
same,Overall clinical response at PTE: Clinical Failure,"[2]; investigator assessment, CE-PTE",6 (2.1) n (%)
same,Overall clinical response at PTE: Clinical Success,"[2]; investigator assessment, CE-PTE (N = 284 / N = 292)",278 (97.9) n (%)
same,Overall clinical response at PTE: Clinical Failure,"[2]; investigator assessment, mITT",12 (3.3) n (%)
same,Overall clinical response at PTE: Clinical Failure or Indeterminate,"[2]; investigator assessment, mITT",57 (15.8) n (%)
same,Overall clinical response at PTE: Indeterminate,"[2]; investigator assessment, mITT",45 (12.5) n (%)
same,Overall clinical response at PTE: Clinical Success,"[2]; investigator assessment, mITT (N = 360 per arm)",303 (84.2) n (%)
same,"Difference in Overall Clinical Success rate at PTE, omadacycline minus linezolid",[2]; mITT,3.3%
same,Difference (95% CI) in Overall Clinical Success rate at PTE,[2]; [3],"−4.5 (−14.0, 4.7)"
same,Difference (95% CI) in Overall Clinical Success rate at PTE,[2]; [4],"−5.1 (−14.9, 4.3)"
same,Difference (95% CI) in Overall Clinical Success rate at PTE,[2]; [5],"5.3 (−8.4, 19.2)"
same,Difference (95% CI) in Overall Clinical Success rate at PTE,[2]; [6],"5.3 (−8.4, 19.2)"
